Assays:
[1] = stability under acidic conditions (observed during isolation); format: physicochemical
Experimental: The methanol extract is added to MCI GEL CHP20P™ (CHP20P) in water and the mixture is stirred for one hour. The charged resin is collected by vacuum filtration and washed with methanol, water, and acetonitrile. The charged resin is then packed in a column and the antibiotics are eluted with acetonitrile-water-formic acid. Further purification is achieved by chromatography on SEPHADEX LH-20™ in acetonitrile-water. Partial resolution of the three antibiotics, janthinocin A, B, and C, is effected by chromatography on CHP20P eluting with a gradient of acetonitrile-water-formic acid. Final separation and purification of janthinocins B and C is achieved by chromaography on CHP20P eluting with an acetonitrile-aqueous ammonium dihydrogen phosphate buffer gradient, followed by desalting on CHP20P, eluting with acetonitrile-water-formic acid, to give the pure antibiotics as off white powders. […] When janthinocin C is present, it co-elutes with janthinocin B in each of the initial chromatographies.

Staphylococcus aureus = assay: agar dilution MIC, aerobic organisms
Streptococcus faecalis = assay: agar dilution MIC, aerobic organisms
Streptococcus agalactiae = assay: agar dilution MIC, aerobic organisms
Micrococcus luteus = assay: agar dilution MIC, aerobic organisms; details: Table 1; Micrococcus luteus SC 2495
Escherichia coli = assay: agar dilution MIC, aerobic organisms; details: Table 1
Klebsiella aerogenes = assay: agar dilution MIC, aerobic organisms; details: Table 1; Klebsiella aerogenes SC 10440
Klebsiella pneumoniae = assay: agar dilution MIC, aerobic organisms; details: Table 1; Klebsiella pneumoniae SC 9527
Proteus mirabilis = assay: agar dilution MIC, aerobic organisms; details: Table 1; Proteus mirabilis SC 3855
Proteus rettgeri = assay: agar dilution MIC, aerobic organisms; details: Table 1; Proteus rettgeri SC 8479
Salmonella typhosa = assay: agar dilution MIC, aerobic organisms; details: Table 1; Salmonella typhosa SC 1195
Enterobacter cloacae = assay: agar dilution MIC, aerobic organisms; details: Table 1; Enterobacter cloacae SC 8236
Enterobacter aerogenes = assay: agar dilution MIC, aerobic organisms; details: Table 1; Enterobacter aerogenes SC 10078
Citrobacter freundii = assay: agar dilution MIC, aerobic organisms; details: Table 1; Citrobacter freundii SC 9518
Serratia marcescens = assay: agar dilution MIC, aerobic organisms; details: Table 1; Serratia marcescens SC 9783
Pseudomonas aeruginosa = assay: agar dilution MIC, aerobic organisms; details: Table 1
Bacillus subtilis = assay: agar dilution MIC, aerobic organisms; details: Table 2; Bacillus subtilis SC 3777
[2] = tested on: Staphylococcus epidermidis; assay: agar dilution MIC, aerobic organisms; details: Table 2
[3] = tested on: Staphylococcus saprophyticus; assay: agar dilution MIC, aerobic organisms; details: Table 2; Staphylococcus saprophyticus SC 12875
Nocardia asteroides = assay: agar dilution MIC, aerobic organisms; details: Table 2; Nocardia asteroides SC 2626
[4] = agar dilution MIC, aerobic organisms; details: Table 2; Nocardia monocytogenes SC 8523
[5] = tested on: Acinetobacter calcoaceticus; assay: agar dilution MIC, aerobic organisms; details: Table 1; Acinetobacter calcoaceticus SC 8333
Shigella sonnei = assay: agar dilution MIC, aerobic organisms; format: cell-based; details: Table 1; Shigella sonnei SC 8449
Text: The composition of K-10 agar was:

Proteus vulgaris = assay: agar dilution MIC, aerobic organisms; details: Table 1; Proteus vulgaris SC 9416
[6] = Table 1, Staphylococcus aureus SC 1276
[7] = Table 1, Staphylococcus aureus SC 2399
[8] = Table 1, Staphylococcus aureus SC 2400
[9] = Table 1, Staphylococcus aureus SC 10165
[10] = Table 2, Staphylococcus aureus SC 2399 (Penicillin S)
[11] = Table 2, Staphylococcus aureus SC 2400 (Penicillin R)
[12] = Table 2, Staphylococcus aureus SC 3184 (Methicillin R)
[13] = Table 2, Staphylococcus aureus SC 9593 (Penicillin R)
[14] = Table 2, Staphylococcus aureus SC 9998 (Penicillin R)
[15] = Table 2, Staphylococcus aureus SC 10014 (Methicillin R)
[16] = Table 2, Staphylococcus aureus SC 10016 (Tetracycline R)
[17] = Table 2, Staphylococcus aureus SC 10020 (Methicillin R)
[18] = Table 2, Staphylococcus aureus SC 10820 (Erythromycin R)
[19] = Table 2, Staphylococcus aureus SC 11239 (Gentamicin R)
[20] = Table 2, Staphylococcus aureus SC 12691 (Erythromycin R)
[21] = Table 1, Streptococcus faecalis SC 9011
[22] = Table 2, Streptococcus faecalis SC 9011
[23] = Table 2, Streptococcus faecalis SC 9376
[24] = Table 2, Streptococcus faecalis SC 10938
[25] = Table 1, Streptococcus agalactiae SC 9287
[26] = Table 2, Streptococcus agalactiae SC 9285
[27] = Table 2, Streptococcus agalactiae SC 9287
[28] = Staphylococcus epidermidis SC 9052 (Penicillin S)
[29] = Staphylococcus epidermidis SC 9083 (Penicillin R)
[30] = Staphylococcus epidermidis SC 9087 (Penicillin R)
[31] = Staphylococcus epidermidis SC 9607 (Penicillin R)
[32] = Staphylococcus epidermidis SC 10547 (Penicillin R)

## janthinocin A
[1]
  chemical stability: converted to janthinocin C under acidic conditions
Staphylococcus aureus; [6]
  MIC: 0.8 µg/mL
Staphylococcus aureus; [7]
  MIC: 1.6 µg/mL
Staphylococcus aureus; [8]
  MIC: 1.6 µg/mL
Staphylococcus aureus; [9]
  MIC: 1.6 µg/mL
Staphylococcus aureus; [10]
  MIC: 0.8 µg/mL
Staphylococcus aureus; [11]
  MIC: 0.4 µg/mL
Staphylococcus aureus; [12]
  MIC: 1.6 µg/mL
Staphylococcus aureus; [13]
  MIC: 0.8 µg/mL
Staphylococcus aureus; [14]
  MIC: 0.8 µg/mL
Staphylococcus aureus; [15]
  MIC: 0.4 µg/mL
Staphylococcus aureus; [16]
  MIC: 0.2 µg/mL
Staphylococcus aureus; [17]
  MIC: 0.4 µg/mL
Staphylococcus aureus; [18]
  MIC: 0.8 µg/mL
Staphylococcus aureus; [19]
  MIC: 0.8 µg/mL
Staphylococcus aureus; [20]
  MIC: 0.4 µg/mL
Streptococcus faecalis; [21]
  MIC: 1.6 µg/mL
Streptococcus faecalis; [22]
  MIC: 0.8 µg/mL
Streptococcus faecalis; [23]
  MIC: 0.8 µg/mL
Streptococcus faecalis; [24]
  MIC: 1.6 µg/mL
Streptococcus agalactiae; [25]
  MIC: 0.2 µg/mL
Streptococcus agalactiae; [26]
  MIC: 0.4 µg/mL
Streptococcus agalactiae; [27]
  MIC: 0.4 µg/mL
Micrococcus luteus
  MIC: 0.2 µg/mL
Escherichia coli; Escherichia coli SC 8294
  MIC: 25 µg/mL
Escherichia coli; Escherichia coli SC 10896
  MIC: 6.3 µg/mL
Escherichia coli; Escherichia coli SC 10909
  MIC: 6.3 µg/mL
Klebsiella aerogenes
  MIC: 25 µg/mL
Klebsiella pneumoniae
  MIC: 25 µg/mL
Proteus mirabilis
  MIC: 100 µg/mL
Proteus rettgeri
  MIC: 50 µg/mL
Salmonella typhosa
  MIC: 12.5 µg/mL
Enterobacter cloacae
  MIC: 25 µg/mL
Enterobacter aerogenes
  MIC: 25 µg/mL
Citrobacter freundii
  MIC: 25 µg/mL
Serratia marcescens
  MIC: 25 µg/mL
Pseudomonas aeruginosa; Pseudomonas aeruginosa SC 8329
  MIC: 100 µg/mL
Pseudomonas aeruginosa; Pseudomonas aeruginosa SC 9545
  MIC: 50 µg/mL
Bacillus subtilis
  MIC: 0.4 µg/mL
[2]; [28]
  MIC: 0.8 µg/mL
[2]; [29]
  MIC: 0.8 µg/mL
[2]; [30]
  MIC: 0.8 µg/mL
[2]; [31]
  MIC: 0.4 µg/mL
[2]; [32]
  MIC: 0.8 µg/mL
[3]
  MIC: 0.8 µg/mL
Nocardia asteroides
  MIC: 0.8 µg/mL
[4]
  MIC: 0.8 µg/mL

## janthinocin B
Staphylococcus aureus; [6]
  MIC: 0.4 µg/mL
Staphylococcus aureus; [7]
  MIC: 1.6 µg/mL
Staphylococcus aureus; [8]
  MIC: 1.6 µg/mL
Staphylococcus aureus; [9]
  MIC: 0.8 µg/mL
Staphylococcus aureus; [10]
  MIC: 0.4 µg/mL
Staphylococcus aureus; [11]
  MIC: 0.8 µg/mL
Staphylococcus aureus; [12]
  MIC: 0.4 µg/mL
Staphylococcus aureus; [13]
  MIC: 0.4 µg/mL
Staphylococcus aureus; [14]
  MIC: 0.1 µg/mL
Staphylococcus aureus; [15]
  MIC: 0.4 µg/mL
Staphylococcus aureus; [16]
  MIC: 0.4 µg/mL
Staphylococcus aureus; [17]
  MIC: 0.4 µg/mL
Staphylococcus aureus; [18]
  MIC: 0.2 µg/mL
Staphylococcus aureus; [19]
  MIC: 0.2 µg/mL
Staphylococcus aureus; [20]
  MIC: 0.4 µg/mL
Streptococcus faecalis; [21]
  MIC: 1.6 µg/mL
Streptococcus faecalis; [22]
  MIC: 1.6 µg/mL
Streptococcus faecalis; [23]
  MIC: 1.6 µg/mL
Streptococcus faecalis; [24]
  MIC: 0.8 µg/mL
Streptococcus agalactiae; [25]
  MIC: < 0.05 µg/mL
Streptococcus agalactiae; [26]
  MIC: < 0.05 µg/mL
Streptococcus agalactiae; [27]
  MIC: < 0.05 µg/mL
Micrococcus luteus
  MIC: 0.2 µg/mL
Escherichia coli; Escherichia coli SC 8294
  MIC: 25 µg/mL
Escherichia coli; Escherichia coli SC 10896
  MIC: 6.3 µg/mL
Escherichia coli; Escherichia coli SC 10909
  MIC: 6.3 µg/mL
Klebsiella aerogenes
  MIC: 50 µg/mL
Klebsiella pneumoniae
  MIC: 25 µg/mL
Proteus mirabilis
  MIC: 100 µg/mL
Proteus rettgeri
  MIC: 100 µg/mL
Salmonella typhosa
  MIC: 12.5 µg/mL
Enterobacter cloacae
  MIC: 50 µg/mL
Enterobacter aerogenes
  MIC: 50 µg/mL
Citrobacter freundii
  MIC: 25 µg/mL
Serratia marcescens
  MIC: 50 µg/mL
Pseudomonas aeruginosa; Pseudomonas aeruginosa SC 8329
  MIC: 100 µg/mL
Pseudomonas aeruginosa; Pseudomonas aeruginosa SC 9545
  MIC: 50 µg/mL
[5]
  MIC: 25 µg/mL
Bacillus subtilis
  MIC: 0.1 µg/mL
[2]; [28]
  MIC: 0.4 µg/mL
[2]; [29]
  MIC: 0.4 µg/mL
[2]; [30]
  MIC: 0.4 µg/mL
[2]; [31]
  MIC: 0.4 µg/mL
[2]; [32]
  MIC: 0.4 µg/mL
[3]
  MIC: 0.4 µg/mL
Nocardia asteroides
  MIC: 3.1 µg/mL
[4]
  MIC: 1.6 µg/mL

## janthinocin C
Shigella sonnei
  MIC: 100 µg/mL
Staphylococcus aureus; [6]
  MIC: 1.6 µg/mL
Staphylococcus aureus; [7]
  MIC: 3.1 µg/mL
Staphylococcus aureus; [8]
  MIC: 3.1 µg/mL
Staphylococcus aureus; [9]
  MIC: 1.6 µg/mL
Streptococcus faecalis; [21]
  MIC: 12.5 µg/mL
Streptococcus agalactiae; [25]
  MIC: 0.8 µg/mL
Micrococcus luteus
  MIC: 1.6 µg/mL
Escherichia coli; Escherichia coli SC 8294
  MIC: > 100 µg/mL
Escherichia coli; Escherichia coli SC 10857
  MIC: 50 µg/mL
Escherichia coli; Escherichia coli SC 10896
  MIC: 50 µg/mL
Escherichia coli; Escherichia coli SC 10909
  MIC: 25 µg/mL
Klebsiella aerogenes
  MIC: 100 µg/mL
Klebsiella pneumoniae
  MIC: > 100 µg/mL
Proteus mirabilis
  MIC: > 100 µg/mL
Proteus rettgeri
  MIC: > 100 µg/mL
Proteus vulgaris
  MIC: > 100 µg/mL
Salmonella typhosa
  MIC: 100 µg/mL
Enterobacter cloacae
  MIC: > 100 µg/mL
Enterobacter aerogenes
  MIC: > 100 µg/mL
Citrobacter freundii
  MIC: 100 µg/mL
Serratia marcescens
  MIC: > 100 µg/mL
Pseudomonas aeruginosa; Pseudomonas aeruginosa SC 8329
  MIC: > 100 µg/mL
Pseudomonas aeruginosa; Pseudomonas aeruginosa SC 9545
  MIC: > 100 µg/mL
[5]
  MIC: 25 µg/mL

— patent US5081225A, “Gram-positive and gram-negative antibacterial compounds from the microorganism, Janthinobacterium lividum” (E. R. Squibb & Sons, Inc., priority 1989, dated 1992)
